Data published in patent publication US10517926B2, “Oligopeptide having proinflammatory cytokine secretion-inhibiting activity” (Osaka University, priority 2015, dated 2019).

How the values were obtained:
[1] = tested on: cerebral ischemia mice (C57BL6/J); experiment: Necrosis after cerebral ischemia, intraventricular administration; type: in vivo, mouse
Protocol: A cerebral ischemic area was artificially developed in wild-type mice (C57BL6/J) using embolic suture. Specifically, nylon suture was inserted from the right external carotid artery into the intracranial internal carotid artery, and the right middle cerebral artery was temporarily occluded. The embolic suture was removed 40 minutes after the formation of the ischemic area, and the blood was reperfused. Four hours after the formation of the ischemic area, 2 μl of MHP1 solution (0.625 μg/2 μl, the solvent was artificial cerebrospinal fluid (aCSF)) or 2 μl of aCSF was administered by injection into the ventricle of the mice with a neurological severe score of 1 or 2. Separately, a group to which edaravone, which is a known brain-protecting agent, was administered was also produced (aCSF intraventricular administration+3 mg/kg of edaravone i.p., administered every 12 hours). The brain was removed 72 hours after the formation of the ischemic area, and a brain slice including left and right brain portions in positions of 1.4, 0.7, and 0 mm in the front and rear of the bregma was produced. The slice was stained with cresyl violet. The area of the […] was regarded as the cerebral infarct area (necrosis site), and the ratio of cerebral infarct area was determined by the following formula. […] Ratio of cerebral infarct area=([normal side brain area]−([cerebral infarct side total area]−[cerebral infarct area])/normal side brain area)×100
Furthermore, the ratio of F4/80-positive cells (activated macrophage/microglia) in the cerebral infarction hemisphere in a position of 0.7 mm from the bregma (/middle cerebral artery region), and the number of the cells were measured.

[2] = tested on: cerebral infarction model mice; experiment: Necrosis inhibition by intravenous administration in cerebral infarction models; type: in vivo, mouse; conditions: 300 μG i.v. 4 hours after infarction, then 336 μg s.c. over 21 hours
Protocol: A cerebral ischemic area was artificially developed in wild-type mice (C57BL6/J) using embolic suture. Specifically, nylon suture was inserted from the right external carotid artery into the intracranial internal carotid artery, and the right middle cerebral artery was temporarily occluded. The embolic suture was removed 40 minutes after the formation of the ischemic area, and the blood was reperfused. Four hours after the formation of the ischemic area, 2 μl of MHP1 solution (0.625 μg/2 μl, the solvent was artificial cerebrospinal fluid (aCSF)) or 2 μl of aCSF was administered by injection into the ventricle of the mice with a neurological severe score of 1 or 2. […] The area of the cresyl violet staining site was regarded as the cerebral infarct area (necrosis site), and the ratio of cerebral infarct area was determined by the following formula. […]
Cerebral infarction models were produced in the same manner as in Example 10. […] Twenty-four hours and forty-eight hours after the production of the cerebral infarction models, neurological severity scores were measured. Furthermore, the mice were sacrificed 48 hours after the production of the cerebral infarction models, and the ratio of cerebral infarct area was determined in the same manner as in Example 10.

MG6 cells = experiment: Stability of RANKL peptide: activity after storage in water; type: cell-based, mouse; conditions: 2 mg/ml in water, 4° C., 208 days
Protocol: MG6 cells (mouse-derived microglial cell line) were cultured in a DMEM medium (+4% FBS) containing MHP1 or MHP2 (final concentration: 50 or 100 μg/ml), and LPS (final concentration: 2 ng/ml) for 24 hours by a standard method. After culture, the concentrations of IL-6 and TNFα in the medium were measured by the ELISA method. In the Examples of the present application, the ELISA method was performed using a kit (Quantikine ELISA Mouse TNF-α or Quantikine ELISA Mouse IL-6, produced by R&D Systems). The results are shown in FIG. 1 (IL-6) and FIG. 2 (TNFα).
MHP1 was dissolved in water to a concentration of 2 mg/ml, and stored at 4° C. for 208 days. Thereafter, the proinflammatory cytokine secretion-inhibiting effect of this MHP1 was examined in the same manner as in Example 2, except that the final concentration of MHP1 was set to 100 μg/ml.

[3] = tested on: osteoclast precursor cells; experiment: Osteoclast differentiation, Osteoclast Culture Kit (TRAP and nuclear staining); type: cell-based
Protocol: Osteoclast Culture Kit V-2 (OSC33, produced by Cosmo Bio Co., Ltd.) was used. According to the manual of the kit, culture of osteoclast precursor cells was started in the presence of M-CSF (final concentration: 50 ng/ml) in the A and B groups, and in the presence of M-CSF (final concentration: 50 ng/ml) and MHP1 (final concentration: 30, 50, or 100 μg/ml) in the C and D groups. Thereafter, 24 hours to 7 days after the start of culture, the A group was cultured in the presence of M-CSF (final concentration: 50 ng/ml), the B group was cultured in the presence of M-CSF (final concentration: 50 ng/ml) and RANKL protein (final concentration: 50 ng/ml), the C group was cultured in the presence of M-CSF (final concentration: 50 ng/ml) and MHP1 (final concentration: 30, 50, or 100 μg/ml), and the D group was cultured in the presence of M-CSF (final concentration: 50 ng/ml), RANKL protein (final concentration: 50 ng/ml), and MHP1 (final concentration: 30, 50, or 100 μg/ml). After culture, the cells were subjected to TRAP staining and nuclear staining according to a standard method.

[4] = tested on: RANK knockdown RAW264.7 cells; experiment: RANK dependency: cytokine secretion in RANK knockdown cells; type: cell-based, mouse; conditions: for secretion of IL-6: FIG. 10; for secretion of TNFα: FIG. 11
Protocol: RAW264.7 cells were suspended in a DMEM medium (+10% FBS), seeded on a 24-well plate, and cultured at 37° C. at a CO2 concentration of 5%. To 100 μl of serum-free DMEM medium, 37.5 ng (final concentration: 5 nM) of siRNA against RANK (a double strand of the sequence represented by SEQ ID NO: 17 and the sequence represented by SEQ ID NO: 18, produced by GeneDesign) or 37.5 ng (final concentration: 5 nM) of control siRNA (a double strand of the sequence represented by SEQ ID NO: 19 and the sequence represented by SEQ ID NO: 20, produced by GeneDesign), and 3 μl of HiPerFect Transfection Reagent (QIAGEN) were added, and the resultant was allowed to stand at room temperature for 10 minutes. This was added to the RAW264.7 cell culture medium. After culture at 37° C. at a CO^2 concentration of 5% for 24 hours, the cells were collected. A protein extract was obtained from the cells by a standard method, and RANK in this extract was detected at a dilution concentration of 1/100 by the Western blotting method (anti-RANK antibody: anti-mRANK (Cat. No. AF692), produced by R&D Systems). […] FIG. 9 confirmed that RANK was knocked down by siRNA against RANK (comparison between lane 2 and lane 3).
MHP1 and LPS were made to act on RANK knockdown cells, as in Example 3, and the concentrations of IL-6 and TNFα in the medium were measured by the ELISA method. FIGS. 10 and 11 show the results.

[5] = RANK knockdown cells (siRNA against RANK)
[6] = control siRNA-introduced RAW264.7 cells

LMVYVVKTSIKIPSSHNLMKGGSTKNWSGN (listed as Mus musculus) [MHP1]
necrosis occurring after cerebral ischemia (ratio of cerebral infarct area) ([1]; 0.625 μg/2 μl into the ventricle 4 hours after ischemia, brain at 72 hours, FIG. 15): could be inhibited
expression of activated macrophage/microglia (F4/80-positive cells) ([1]; cerebral infarction hemisphere, 0.7 mm from the bregma, FIG. 16): suppressed
degree of inhibition of necrosis compared with edaravone administration ([1]; one MHP1 administration vs edaravone 3 mg/kg i.p. every 12 hours, FIG. 15): higher than edaravone administration
symptoms of cerebral infarction (neurological severity scores) ([2]; 24 and 48 hours, FIG. 23): could be relieved
necrosis occurring after cerebral ischemia (ratio of cerebral infarct area) ([2]; 48 hours, FIG. 22): could be suppressed
stability (MG6 cells): high
proinflammatory cytokine secretion-inhibiting effect after long-term storage (MG6 cells; tested at 100 μg/ml on MG6 cells, FIG. 18): exhibited a proinflammatory cytokine secretion-inhibiting effect
differentiation of osteoclasts promoted by RANKL ([3]; M-CSF 50 ng/ml + RANKL protein 50 ng/ml + MHP1 30, 50 or 100 μg/ml, FIG. 13 (a)): inhibited
differentiation of osteoclasts by the substance itself ([3]; with M-CSF 50 ng/ml, MHP1 30, 50 or 100 μg/ml or RANKL protein 50 ng/ml, FIG. 13): did not occur
secretion of IL-6 [4, 5]: not inhibited
secretion of TNFα [4, 5]: not inhibited
secretion of IL-6 [4, 6]: inhibited
secretion of TNFα [4, 6]: inhibited
